Data set [1] can be described thus: chemical stability of active ingredient in liquid formulation after storage at 54° C. for two weeks (HPLC, relative to −10° C. control). It counts as physicochemical. On the procedure: Chemical stability can be determined as a percentage of the sulfonyl urea remaining (e.g. as determined by HPLC) when the liquid composition (e.g. a 50 ml sample of the liquid composition in a 60 ml hermetically sealed Winchester bottle) has been stored at 54° C. for two weeks relative to a corresponding control sample that has been stored at −10° C. for two weeks.
Sulfonylurea was added to a solvent in an amount of 25 wt. %. The mixture was placed in a mill (Eiger Torrance Mini Mill) containing glass beads (1.0-1.25 mm). The suspension was then milled to provide a 25 wt. % sulfonylurea millbase having a particle size (D50) between 2 and 3 μm.
Lithium salt was added to solvent in an amount of 25 wt. % and milled as described above to provide a 25 wt. % lithium salt millbase having a particle size (D50) between 2 and 3 μm.
An appropriate amount of the milled concentrate of sulfonylurea (i) was blended with solvent (optionally containing surfactant) until homogenous, and then further blended with milled concentrate of lithium salt (ii) until homogenous, resulting in the oil dispersions as described in the tables below.
The liquid formulations were stored in tightly closed glass bottles in thermostatically controlled incubators at 54° C. for two weeks with control samples stored at −10° C. After storage, all formulations were analysed for active ingredient content(s) by HPLC. Stability is reported with respect to the amount of active ingredient remaining relative to a corresponding sample stored at −10° C. for two weeks.

For data set [2] the following is noted: after 5 days, depending on the selected solvent; U.S. Pat. No. 5,731,264; cited from earlier work.
For data set [3] the following is noted: one week of storage at 40° C.; WO 2007/027863 A2; cited from earlier work.
The mark [4] stands for this setting: in the presence of lithium acetate.

Read-outs that look alike come from different tables or passages of the source.

Regarding `CCOC(=O)c1cnn(C)c1S(=O)(=O)NC(=O)Nc1nc(OC)cc(OC)n1` [pyrazosulfuron-ethyl, ethyl 5-[[[[(4,6-dimethoxy-2-pyrimidinyl)amino]carbonyl]amino]sulfonyl]-1-methyl-1H-pyrazole-4-carboxylate], the “chemical stability in the presence of lithium acetate” value in data set [1] (setting [4]) was “excellent chemical stability”.

On to `COC(=O)c1c(Cl)nn(C)c1S(=O)(=O)NC(=O)Nc1nc(OC)cc(OC)n1` [halosulfuron-methyl, methyl 3-chloro-5-[[[[(4,6-dimethoxy-2-pyrimidinyl)amino]carbonyl]amino]sulfonyl]-1-methyl-1H-pyrazole-4-carboxylate], for which the “chemical stability in the presence of lithium acetate” value in data set [1] (setting [4]) was “excellent chemical stability”.

For the compound `COC(=O)c1ccc(I)cc1S(=O)(=O)NC(=O)Nc1nc(C)nc(OC)n1` [iodosulfuron-methyl, methyl 4-iodo-2-[[[[(4-methoxy-6-methyl-1,3,5-triazin-2-yl)amino]carbonyl]amino]sulfonyl]benzoate], the “chemical stability in the presence of lithium acetate” value in data set [1] (setting [4]) is listed as “excellent chemical stability”. Also, in data set [1] (in the presence of lithium acetate, formate, benzoate, octanoate, salicylate, citrate, carbonate, phosphate, chloride and sulphate), the “chemical stability in the presence of lithium salts” value was “excellent chemical stability”.

Take `COC(=O)c1ccccc1S(=O)(=O)NC(=O)Nc1nc(C)nc(OC)n1` [metsulfuron-methyl, methyl 2-[[[[(4-methoxy-6-methyl-1,3,5-triazin-2-yl)amino]carbonyl]amino]sulfonyl]benzoate]: in data set [2], the metsulfuron methyl lost was 25-30%. Besides, the “chemical stability in the presence of lithium acetate” value in data set [1] was “excellent chemical stability”.

As for `COc1cc(OC)nc(NC(=O)NS(=O)(=O)N(C)S(C)(=O)=O)n1` [amidosulfuron, N-[[[[(4,6-dimethoxy-2-pyrimdinyl)amino]carbonyl]amino]sulfonyl]-N-methylmethanesulfonamide], the “chemical stability in the presence of lithium acetate” value in data set [1] (setting [4]) is on record as “excellent chemical stability”.

In the case of `COC(=O)c1ccccc1S(=O)(=O)NC(=O)N(C)c1nc(C)nc(OC)n1` [tribenuron-methyl, methyl 2-[[[[N-(4-methoxy-6-methyl-1,3,5-triazin-2-yl)-N-methylamino]carbonyl]amino]-sulfonyl]benzoate], in data set [3], the tribenuron-methyl lost entry is “up to 66.5%”.

The record behind these values is patent publication US12364261B2, “Liquid sulfonylurea- and Li-salt containing herbicidal compositions” (priority 2016, dated 2025).
